GI50 and TGI data for 16 compounds are collected here from PubChem BioAssay (NCI).

Usually GI50 stands for the concentration that inhibits growth by half. One may read the TGI as the concentration giving total growth inhibition.

Common to all, as to test: DTP human tumour cell line panel, 48 h
Assay [1] concerns SF-295 CNS.
In assay [2] the test system is MDA-MB-231 breast.
Assay [3] relates to SK-MEL-2 melanoma.
Assay [4] relates to SN12C renal.
Assay [5] has as its system SK-OV-3 ovarian.
Assay [6] has as its system PC-3 prostate.
For assay [7], the system named is NCI/ADR-RES ovarian.
Assay [8] concerns OVCAR-3 ovarian.
The subject of assay [9] is UACC-257 melanoma.
Assay [10] concerns TK-10 renal.

Where “and” joins values, the source holds several entries; their conditions need not be identical. Identical values can stand only once.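 Following 48 hours of exposure in 96-well plates, responses at five concentrations were used to interpolate endpoints linearly. GI50 = concentration required for 50% inhibition of growth. TGI denotes the concentration required for complete inhibition of growth.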

For the compound `O=C1/C(=C/c2cccc([N+](=O)[O-])c2)COc2ccc(O)cc21`, the GI50 is 6.94 µM in [1]; 2.07 µM in assay [2]; 2.1 µM in assay [3]; 1.79 µM in assay [4]; 4.64 µM in assay [5]; 2.15 µM in assay [6]. The GI50 in assay [7] was 2.93 µM; in assay [8] it was 1.71 µM; in [9], 2.37 µM; in assay [10] it was 2.77 µM. For the same compound, the TGI in assay [1] is 19.8 µM; in assay [2] it was 4.75 µM; in assay [3], 5.3 µM; in assay [4] it was 3.47 µM; in [5], 15.9 µM; in assay [6], 5.45 µM. Besides, the TGI stood at 10.8 µM in assay [7], 3.13 µM in assay [8], 6.66 µM in [9] and 9.11 µM in assay [10].

In the case of `NC(=O)c1sc(-n2cnc3ccccc32)cc1OCc1ccccc1Br`, the GI50 in assay [1] is 3.9 µM; in assay [2], 4.96 µM; in assay [3], 6.43 µM; in assay [4] it was 14.2 µM; in assay [5], 6.94 µM; in assay [6], 10.3 µM. Further, the GI50 is 0.869 µM in assay [7], 1.55 µM in assay [8], 17.3 µM in [9] and 11.3 µM in assay [10]. Further, the TGI in [1], in assay [2], in assay [3], in assay [4], in [5] and in [6] was over 25 µM in each case. Further, the TGI was over 25 µM in assay [7], 17.6 µM in assay [8], over 25 µM in assay [9] and over 25 µM in assay [10].

Take `Cc1coc2c1CC1(C)C(CCC(O)C1C)C2` (configuration not stated): the TGI in assay [1], in assay [2], in [3], in [4], in assay [5] and in [6] was over 100 µM in each case. Besides, the TGI in assay [7], in assay [8], in [9] and in assay [10] was over 100 µM each time.

With `O=C(Nc1ccccc1)NS(=O)(=O)c1ccc(-n2nc3c(c2-c2cccs2)Cc2ccccc2-3)cc1`, the GI50 in [1] is 21.9 µM; in assay [2], 15.3 µM; in assay [3], 70.1 µM; in assay [4], 19.9 µM; in assay [5] it was 60.8 µM; in assay [6], 10.4 µM. The GI50 is 16.1 µM in assay [7], 21.8 µM in [8], 17.7 µM in assay [9] and 4.99 µM in assay [10]. The TGI in [1] is 73.5 µM; in assay [2], 60.8 µM; in assay [3], over 100 µM; in [4] it was 64.2 µM; in assay [5], over 100 µM; in assay [6], over 100 µM. Further, the concentration for total growth inhibition (TGI) in assay [7] was 43 µM; in assay [8], over 100 µM; in assay [9] it was 67.7 µM; in assay [10], 30.8 µM.

For `O=S(=O)(NC1=NCCN1C(=S)SN1CCn2c1nsc2=S)c1ccc(OC(F)(F)F)cc1`, the GI50 in assay [2] is 15.1 µM; in [3] it was 6.58 µM; in assay [4] it was 14.5 µM; in assay [5], 19.5 µM; in assay [6], 13.1 µM; in [7] it was 20.5 µM. Moreover, the GI50 was 7.63 µM in assay [8], 15.5 µM in assay [9] and 11.3 µM in assay [10]. Besides, the TGI in [2] was 36.1 µM; in [3], 21 µM; in assay [4] it was 30.3 µM; in assay [5], 34.6 µM; in assay [6] it was 37.2 µM; in assay [7], over 100 µM. In addition, the TGI in assay [8] came to 22.9 µM; in assay [9], 30 µM; in assay [10], 24.6 µM.

For the compound `COc1ccc(C(=O)Cn2c(C(=O)c3ccccc3)nc(-c3ccc(OC)cc3)c2-c2ccc(OC)cc2)cc1`, the GI50 was 42.5 µM in assay [1]; 64.3 µM in assay [2]; 66 µM in assay [3]; over 100 µM in [4]; 97.8 µM in [5]; over 100 µM in assay [6]. For the same compound, the GI50 in assay [7], in assay [8], in assay [9] and in assay [10] was over 100 µM in each case. In addition, the TGI in assay [1], in [2], in assay [3], in assay [4], in assay [5] and in [6] was over 100 µM each time. The TGI in [7], in assay [8], in [9] and in assay [10] was over 100 µM in each case.

As to `c1ccc2cc(-c3cc(-c4cc(-c5ccc6ccccc6c5)on4)no3)ccc2c1`, the TGI in assay [1], in assay [2], in [3], in assay [4], in assay [5] and in [6] was over 100 µM throughout. The TGI in assay [7], in [8], in [9] and in assay [10] was over 100 µM in each case.

Regarding `CC[C@@]1(O)C[C@H](OC2CC(N(C)C)C(O)C(C)O2)c2c(O)c3c(c(O)c2[C@H]1OC1CC(N(C)C)C(O)C(C)O1)C(=O)c1cccc(O)c1C3=O` (some centres not stated), the GI50 in assay [1], in [2], in assay [3], in assay [4], in assay [5] and in assay [6] was under 0.01 µM in each case. Besides, the 50% growth inhibitory concentration (GI50) in assay [7], in assay [8], in [9] and in assay [10] was under 0.01 µM in each case. The TGI in [3] is 0.0568 µM and < 0.01 µM; in assay [4] it was 1.04 µM; in assay [5], 0.375 µM and 0.0643 µM; in assay [7], 0.842 µM and 0.334 µM; in assay [8], under 0.01 µM.

On to `COc1ccc(-c2nc3sccn3c2/C(N)=N/C(=N)N)cc1OC`, for which the GI50 in assay [1] is 30.5 µM; in assay [2] it was 17.8 µM; in [3] it was 29.4 µM; in assay [4], 27.2 µM; in assay [5], over 100 µM; in [6], 34.3 µM. The GI50 in [7] is over 100 µM; in assay [8], 31.8 µM; in assay [9], 40.7 µM; in [10], 28.6 µM. Besides, the TGI is 87.1 µM in assay [1]; 39.3 µM in [2]; over 100 µM in assay [3]; over 100 µM in assay [4]; over 100 µM in assay [5]; over 100 µM in assay [6]. The TGI in assay [7], in assay [8], in assay [9] and in assay [10] was over 100 µM each time.

As to `COC1CCC(N2C(=O)CNc3ncc(-c4ccc(C(C)(C)O)nc4)nc32)CC1` (configuration not stated), the 50% growth inhibitory concentration (GI50) in assay [1] is 0.511 µM and 0.157 µM; in [2], 0.52 µM and 0.283 µM; in assay [3] it was 0.772 µM and 0.183 µM; in assay [4], 0.794 µM and 0.315 µM; in assay [5] it was 0.464 µM and 0.0716 µM; in assay [6], 0.322 µM and 0.108 µM. For the same compound, the GI50 in assay [7] is 1.64 µM and 0.435 µM; in assay [8] it was 0.904 µM and 0.248 µM; in assay [9], 0.649 µM and 0.195 µM. Besides, the TGI is 4.75 µM and 3.09 µM in [1]; 4.8 µM and 25.3 µM in assay [2]; 3.69 µM and 1.48 µM in [3]; over 43.2 µM in [4]; 3.93 µM and 0.551 µM in [5]; 4.2 µM and > 33.5 µM in assay [6]. The TGI in [7] is over 100 µM; in assay [8], over 33 µM; in assay [9] it was 5.23 µM and 3.83 µM; in assay [10], 5.58 µM and 1.86 µM.

Turning to `CCN(CCO)CC1CCCC2CCCCC21` (configuration not stated), the TGI in assay [1], in assay [2], in [3], in assay [4], in [5] and in assay [6] was over 100 µM throughout. In addition, the TGI in assay [7], in [8], in assay [9] and in [10] was over 100 µM each time.

Turning to `CSc1nc2c(c(=O)[nH]1)N=C1c3ccccc3C(=O)C1C(c1ccccc1)N2` (configuration not stated), the GI50 is 1.91 µM in assay [1]; 4.09 µM in assay [2]; 9.02 µM in [3]; 6.39 µM in assay [4]; 7.65 µM in assay [5]; 3.64 µM in [6]. For the same compound, the GI50 was 4.54 µM in assay [7], 2.12 µM in assay [8] and 73.6 µM in assay [10]. Besides, the TGI in assay [1], in assay [2], in [3], in assay [4], in assay [5] and in [6] was over 100 µM each time. Further, the results for the TGI in assay [7], in assay [8] and in assay [10] were 32.1 µM, 5.67 µM and over 100 µM, respectively.

`Cn1c2ccccc2c2c(Nc3ccccc3)c3ccccc3nc21`: the GI50 in assay [1] is 5.62 µM; in assay [2] it was 2.75 µM; in assay [3] it was 80 µM; in assay [4] it was 16.5 µM; in [5], 41 µM; in [6] it was 11.7 µM. Besides, the GI50 was 54.1 µM in [7], 33 µM in assay [9] and 15.8 µM in [10]. The TGI is 23.8 µM in [1]; 22.9 µM in assay [2]; over 100 µM in assay [3]; 47.3 µM in assay [4]; over 100 µM in assay [5]; 48.1 µM in assay [6]. Also, the values for the TGI in assay [7], in [9] and in assay [10] were over 100 µM, over 100 µM and 43.8 µM, respectively.

For the compound `CCCCOC(=O)C1OC(O[C@H]2CCC3(C)C(CCC4(C)C3CC=C3C5CC(C)(C)CCC5(C(=O)O)CC[C@]34C)C2(C)C)C(OC2OC(CO)C(O)C(O)C2O)C(OC2OC(CO)C(O)C(O)C2O)C1O` (some centres not stated), the GI50 in assay [1] is 26 µM; in assay [2] it was 14.5 µM; in assay [3], 40.9 µM; in [4] it was 21.8 µM; in assay [6], 34.7 µM; in [7], 74 µM. The values for the GI50 in [8], in assay [9] and in assay [10] were over 100 µM, 26.2 µM and 33.3 µM, respectively. Further, the TGI in [1] was 71 µM; in assay [2] it was 32.2 µM; in assay [3], over 100 µM; in [4], 40 µM; in assay [6] it was over 100 µM; in assay [7], over 100 µM. For the same compound, the TGI was over 100 µM in assay [8], 62.2 µM in assay [9] and over 100 µM in assay [10].

Turning to `CC1(C)CCc2c(c3c(c4c(=O)c(O)c(-c5ccc(O)cc5)oc24)OC(C)(C)CC3)O1`, the GI50 in assay [1] was 34.3 µM; in assay [2] it was 28.3 µM; in assay [3], 67.2 µM; in assay [4] it was 82.9 µM; in assay [5], 23.2 µM; in assay [6], over 100 µM. Also, the GI50 in [7] is 55.7 µM; in assay [8], 49.9 µM; in [10] it was 36.6 µM. Also, the TGI in [1] is over 100 µM; in [2], 84.1 µM; in [3], over 100 µM; in [4], over 100 µM; in [5], 53.4 µM; in assay [6], over 100 µM. The TGI in assay [7], in assay [8] and in assay [10] was over 100 µM in each case.

Regarding `C#Cc1ccc(-n2c(/C=C/c3ccc(C(F)(F)F)cc3)nc3ncccc3c2=O)cc1`, the GI50 in [2] was 2.05 µM; in assay [3], 2.03 µM; in assay [4], 2.08 µM; in assay [5] it was 3.61 µM; in assay [6], 1.96 µM; in assay [7] it was 2.5 µM. Besides, the GI50 in [8] was 1.67 µM; in [9], 1.56 µM; in assay [10], 2.19 µM. Further, the TGI in assay [2] turned out to be 5.47 µM; in assay [3], 4.09 µM; in assay [4], 5.63 µM; in assay [5] it was 13.4 µM; in [6], 6.31 µM; in assay [7], 7 µM. Besides, the figures for the TGI in [8], in assay [9] and in assay [10] were 3.17 µM, 2.95 µM and 3.7 µM, respectively.
